Measured values taken from paper PMC3433414, “Oral Administration of the Pimelic Diphenylamide HDAC Inhibitor HDACi 4b Is Unsuitable for Chronic Inhibition of HDAC Activity in the CNS In Vivo” (PLoS ONE, 2012).

System: P-glycoprotein (Pgp, MDR1)
Assay: Effective efflux ratio in MDR1-MDCK cells
Format: in vitro ADME
Conditions: human, pH 7.4; MDCK overexpressing MDR1
Method: The MDR1-MDCKII and wild type MDCKII cell lines (obtained from SOLVO Biotechnology) were cultured in accordance with the guidelines provided by SOLVO Biotechnology. Both wild-type MDCK and MDR1-MDCK cells were seeded at a cell density of 2.3×10^5 cells/well into 24-well Transwell plates and cultured for three days to form monolayers. Test compound was loaded into the donor compartments of the Transwell plate (24-well) bearing MDR1-MDCK or wild type MDCK monolayers. Test compound was added to either the apical or basolateral chambers of the Transwell plate assembly at a concentration of 10 µM in Hanks’ Balanced Salt Solution containing 25 mM HEPES (pH 7.4). Lucifer Yellow was added to the apical buffer in all wells and its permeation monitored to assess integrity of the cell layer. […]
After 1 h incubation at 37°C, aliquots were taken from both chambers and added to acetonitrile containing analytical internal standard (carbamazepine) in a 96-well plate. Concentrations of compound in the samples were measured by LC-MS/MS. Concentrations of LY in the samples were measured using a fluorescence plate reader.
The apparent permeability (Papp) values of test compound were determined for both the apical to basal (A>B) and basal to apical (B>A) permeation and the efflux ratio (B>A: A>B) determined in both the wild type MDCK and MDR1-MDCK cells. […]

With `Nc1ccccc1NC(=O)CCCCCC(=O)Nc1ccccc1` [Compound 4b] the efflux ratio at 1 h, 10 µM was 4.9.
